Test results published in patent publication US11384078B2, “5,6-fused-bicyclic compounds and compositions for the treatment of parasitic diseases” (NOVARTIS AG, priority 2017, dated 2022).
Read-outs that look alike come from different tables or passages of the source.

Experiments:
Assay type in all cases: cell-based
[1] = test system: Trypanosoma brucei brucei (Lister 427) strain; assay: Assay for growth inhibition against Trypanosoma brucei brucei (Cell TiterGlo ATP luminescence); conditions: T. brucei brucei (Lister 427), read-out: T. Brucei (HAT) EC50
Outline: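 Growth read-out is cellular ATP by CellTiter-Glo luminescence, measured 30 min after reagent addition, following 2-day incubation at 37 °C in CO2. Parasites (10,000/mL, HMI-9 plus 10% FBS and 10% serum plus) faced 10 threefold dilutions in duplicate; IC50 taken as 50% growth inhibition versus untreated.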

[2] = test system: L. donovani HU3 strain in mouse peritoneal macrophages; assay: Assay for inhibition of parasitemia of Leishmania donovani in mouse macrophages (SYBR Green nuclei count, high-content imaging); conditions: Leishmania donovani, Peritoneal macrophage, L. donovani in mouse peritoneal macrophages; read-out: L. donovani in Mouse Macrophages EC50
Outline: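 Parasite numbers were counted from SYBR Green-stained nuclei imaged by high-content microscopy after paraformaldehyde fixation and Triton permeabilization. Before this, compound was applied for 5 days at 37° C to BALB/c peritoneal macrophages (2×10^4/well) that had been exposed 24 h to 4×10^5 L. donovani HU3 amastigotes harvested from infected mouse spleens.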

[3] = test system: Trypanosoma cruzi amastigotes cultured in 3T3 fibroblast cells; assay: Assay for growth inhibition of kinetoplastid parasite Trypanosoma cruzi (beta-galactosidase Tulahuen strain, CPRG readout); conditions: Trypanosoma cruzi, Fibroblast, T. cruzi amastigotes in 3T3 fibroblast cells; read-out: Buckner infectious T. cruzi EC50
Outline: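 3T3 fibroblasts (1,000 cells/well) plated overnight, treated with compound in DMSO, then infected with 10,000 Lac-Z-expressing Tulahuen trypomastigotes. After 6 days, 0.6 mM CPRG with 0.6% NP-40 added for 2 h at room temperature; absorbance gives relative intracellular amastigote numbers. Benznidazole and nifurtimox serve as positive controls.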

[4] = test system: Leishmania donovani axenic amastigote; assay: In vitro assay for growth inhibition of Leishmania donovani axenic amastigote (Cell TiterGlo luminescence); conditions: Leishmania donovani, L. donovani axenic amastigotes in vitro; read-out: L. donovani amastigotes EC50
Outline: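 Compound-treated wells received 9600 axenic amastigotes in RPMI 1640-based medium at pH 5.5 (37 °C, 5% CO2). Growth measured as ATP luminescence (CellTiter-Glo) after 2-day incubation; DMSO and reference compounds served as controls.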

Structure (SMILES) | EC50 ([1]; Trypanosoma brucei) [µM] | EC50 [2] [µM] | EC50 [3] [µM] | EC50 [4] [µM] | EC50 [1] [µM]
N#Cc1ccc(C(=O)Nc2ccc(F)c(-n3cc4cc(-c5ccccn5)cnc4n3)c2)o1 [Compound 206, 5-cyano-N-{4-fluoro-3-[5-(pyridin-2-yl)-2H-pyrazolo[3,4-b]pyridin-2-yl]phenyl}furan-2-carboxamide] | 0.005 | 0.013 | 0.001 | 0.002 | 
CCOC1CC1C(=O)Nc1ccc(F)c(-n2cc3cc(C(C)C)cnc3n2)c1 (centres unmarked) [Compound 207, 2-ethoxy-N-{4-fluoro-3-[5-(propan-2-yl)-2H-pyrazolo[3,4-b]pyridin-2-yl]phenyl}cyclopropane-1-carboxamide] | 1.82 | 2.06 | 1.27 | 1.83 | 
CC(C)c1cnc2nn(-c3cc(NC(=O)C4CC4(F)F)ccc3F)cc2c1 (centres unmarked) [Compound 208, 2,2-difluoro-N-{4-fluoro-3-[5-(propan-2-yl)-2H-pyrazolo[3,4-b]pyridin-2-yl]phenyl}cyclopropane-1-carboxamide] | 0.375 | 1.92 | 0.358 | 0.921 | 
CC(C)c1cnc2nn(-c3cc(NC(=O)C4(C(F)(F)F)CC4)ccc3F)cc2c1 [Compound 209, N-{4-fluoro-3-[5-(propan-2-yl)-2H-pyrazolo[3,4-b]pyridin-2-yl]phenyl}-1-(trifluoromethyl)cyclopropane-1-carboxamide] | 6.54 | 0.381 | 5.09 | 25 | 
CC(C)c1cnc2nn(-c3cc(NC(=O)C4CC4C)ccc3F)cc2c1 (centres unmarked) [Compound 211, N-{4-fluoro-3-[5-(propan-2-yl)-2H-pyrazolo[3,4-b]pyridin-2-yl]phenyl}-2-methylcyclopropane-1-carboxamide] | 0.035 | 0.302 | 0.072 | 0.496 | 
CC(C)c1cnc2nn(-c3cc(NC(=O)CC(F)(F)F)ccc3F)cc2c1 [Compound 212, 3,3,3-trifluoro-N-{4-fluoro-3-[5-(propan-2-yl)-2H-pyrazolo[3,4-b]pyridin-2-yl]phenyl}propanamide] | 2.03 | 8.86 | 1.75 | 11.3 | 
CC(C)c1cnc2nn(-c3cc(NC(=O)CCCC(F)(F)F)ccc3F)cc2c1 [Compound 214, 5,5,5-trifluoro-N-{4-fluoro-3-[5-(propan-2-yl)-2H-pyrazolo[3,4-b]pyridin-2-yl]phenyl}pentanamide] | 1.06 | 0.658 | 1.42 | 4.6 | 
CC(C)c1cnc2nn(-c3cc(NC(=O)CCC4CC4)ccc3F)cc2c1 [Compound 215, 3-cyclopropyl-N-{4-fluoro-3-[5-(propan-2-yl)-2H-pyrazolo[3,4-b]pyridin-2-yl]phenyl}propanamide] | 0.947 | 2.98 | 0.738 | 4.7 | 
CC(C)c1cnc2nn(-c3cc(NC(=O)CC4CCC4)ccc3F)cc2c1 [Compound 216, 2-cyclobutyl-N-{4-fluoro-3-[5-(propan-2-yl)-2H-pyrazolo[3,4-b]pyridin-2-yl]phenyl}acetamide] | 0.62 | 4.67 | 0.435 | 3.7 | 
O=C(Nc1ccc(F)c(-n2cc3cc(-c4ccccn4)cnc3n2)c1)C1=CCC1 [Compound 218, N-{4-fluoro-3-[5-(pyridin-2-yl)-2H-pyrazolo[3,4-b]pyridin-2-yl]phenyl}cyclobut-1-ene-1-carboxamide] | 0.003 | 0.212 | 0.038 | 0.004 | 
C[C@@H]1CN(c2cnc3nn(-c4cc(NC(=O)N5CC(F)C5)ccc4F)cc3c2)C[C@H](C)O1 [Compound 230, N-(3-{5-[(2R,6S)-2,6-dimethylmorpholin-4-yl]-2H-pyrazolo[3,4-b]pyridin-2-yl]-4-fluorophenyl)-3-fluoroazetidine-1-carboxamide] |  | 0.022 | 0.047 | 0.037 | 0.005
O=C(Nc1ccc(F)c(-n2cc3cc(N4CCC45COC5)cnc3n2)c1)N1CC(F)C1 [Compound 231, 3-fluoro-N-{4-fluoro-3-(5-{6-oxa-1-azaspiro[3.3]heptan-1-yl}-2H-pyrazolo[3,4-b]pyridin-2-yl)phenyl}azetidine-1-carboxamide] |  | 0.113 | 0.126 | 0.034 | 0.006
COCC1CN(c2cnc3nn(-c4cc(NC(=O)N5CC(F)C5)ccc4F)cc3c2)C1 [Compound 232, 3-fluoro-N-(4-fluoro-3-{5-[3-(methoxymethyl)azetidin-1-yl]-2H-pyrazolo[3,4-b]pyridin-2-yl]phenyl)azetidine-1-carboxamide] |  | 0.01 | 0.012 | 0.012 | 0.005
O=C(Nc1ccc(F)c(-n2cc3cc(N4CC5(CC5)C4)cnc3n2)c1)N1CC(F)C1 [Compound 233, N-[3-(5-{5-azaspiro[2.3]hexan-5-yl}-2H-pyrazolo[3,4-b]pyridin-2-yl)-4-fluorophenyl]-3-fluoroazetidine-1-carboxamide] |  | 0.01 | 0.005 | 0.013 | 0.004
O=C(Nc1ccc(F)c(-n2cc3cc(N4C[C@@H](F)[C@H](F)C4)cnc3n2)c1)N1CC(F)C1 [Compound 234, N-(3-{5-[(3R,4R)-3,4-difluoropyrrolidin-1-yl]-2H-pyrazolo[3,4-b]pyridin-2-yl]-4-fluorophenyl)-3-fluoroazetidine-1-carboxamide] |  | 0.003 | 0.009 | 0.027 | 0.005
O=C(Nc1ccc(F)c(-n2cc3cc(N4C5CCC4COC5)cnc3n2)c1)N1CC(F)C1 [Compound 235, 3-fluoro-N-[4-fluoro-3-(5-{3-oxa-8-azabicyclo[3.2.1]octan-8-yl}-2H-pyrazolo[3,4-b]pyridin-2-yl)phenyl}azetidine-1-carboxamide] | 0.005 | 0.01 | 0.011 | 0.011 | 
O=C(O)C1CCN(c2cnc3nn(-c4cc(NC(=O)N5CC(F)C5)ccc4F)cc3c2)CC1 [Compound 236, 1-(2-{2-fluoro-5-[(3-fluoroazetidine-1-carbonyl)amino]phenyl}-2H-pyrazolo[3,4-b]pyridin-5-yl)piperidine-4-carboxylic acid] | 1.46 | 29.7 | 20 | 0.264 | 
O=C(Nc1ccc(F)c(-n2cc3cc(N4CCN(CC(F)(F)F)CC4)cnc3n2)c1)N1CC(F)C1 [Compound 237, 3-fluoro-N-(4-fluoro-3-{5-[4-(2,2,2-trifluoroethyl)piperazin-1-yl]-2H-pyrazolo[3,4-b]pyridin-2-yl}phenyl)azetidine-1-carboxamide] | 0.005 | 0.009 | 0.021 | 0.016 | 
O=C(Nc1ccc(F)c(-n2cc3cc(N4CCC(C5COC5)CC4)cnc3n2)c1)N1CC(F)C1 [Compound 238, 3-fluoro-N-(4-fluoro-3-{5-[4-(oxetan-3-yl)piperidin-1-yl]-2H-pyrazolo[3,4-b]pyridin-2-yl}phenyl)azetidine-1-carboxamide] | 0.005 | 0.032 | 0.033 | 0.025 | 
O=C(Nc1ccc(F)c(-n2cc3cc(N4CC5(CSC5)C4)cnc3n2)c1)N1CC(F)C1 [Compound 239, 3-fluoro-N-[4-fluoro-3-(5-{2-thia-6-azaspiro[3.3]heptan-6-yl}-2H-pyrazolo[3,4-b]pyridin-2-yl)phenyl}azetidine-1-carboxamide] | 0.005 | 0.009 | 0.01 | 1.76 | 
O=C(Nc1ccc(F)c(-n2cc3cc(N4CC5CC(C4)O5)cnc3n2)c1)N1CC(F)C1 [Compound 240, 3-fluoro-N-[4-fluoro-3-(5-{6-oxa-3-azabicyclo[3.1.1]heptan-3-yl}-2H-pyrazolo[3,4-b]pyridin-2-yl)phenyl}azetidine-1-carboxamide] | 0.005 | 0.027 | 0.021 | 0.579 | 
O=C(Nc1ccc(F)c(-n2cc3cc(N4CCC5(CC5)C4)cnc3n2)c1)N1CC(F)C1 [Compound 241, N-[3-(5-{5-azaspiro[2.4]heptan-5-yl}-2H-pyrazolo[3,4-b]pyridin-2-yl)-4-fluorophenyl}-3-fluoroazetidine-1-carboxamide] | 0.005 | 0.006 | 0.003 | 1.19 | 
O=C(Nc1ccc(F)c(-n2cc3cc(N4CCC5(CC5)C4)cnc3n2)c1)N1CCC2(CC2)C1 [Compound 242, N-[3-(5-{5-azaspiro[2.4]heptan-5-yl}-2H-pyrazolo[3,4-b]pyridin-2-yl)-4-fluorophenyl}-5-azaspiro[2.4]heptane-5-carboxamide] | 0.013 | 0.106 | 0.007 | 1.97 | 
